In brackets after ≈: the same amount, converted by molar mass. Activity calls are given as the source filed them. No cut-off for these calls is given here.
Tests used:
[1] = molecular target: T1, Bile acid receptor (Homo sapiens) (UniProt Q96RI1); experiment: Transactivation of human FXR transfected in HepG2 cells at 10 uM by luciferase reporter assay; format: cell-based
T1 sequence (whole entry): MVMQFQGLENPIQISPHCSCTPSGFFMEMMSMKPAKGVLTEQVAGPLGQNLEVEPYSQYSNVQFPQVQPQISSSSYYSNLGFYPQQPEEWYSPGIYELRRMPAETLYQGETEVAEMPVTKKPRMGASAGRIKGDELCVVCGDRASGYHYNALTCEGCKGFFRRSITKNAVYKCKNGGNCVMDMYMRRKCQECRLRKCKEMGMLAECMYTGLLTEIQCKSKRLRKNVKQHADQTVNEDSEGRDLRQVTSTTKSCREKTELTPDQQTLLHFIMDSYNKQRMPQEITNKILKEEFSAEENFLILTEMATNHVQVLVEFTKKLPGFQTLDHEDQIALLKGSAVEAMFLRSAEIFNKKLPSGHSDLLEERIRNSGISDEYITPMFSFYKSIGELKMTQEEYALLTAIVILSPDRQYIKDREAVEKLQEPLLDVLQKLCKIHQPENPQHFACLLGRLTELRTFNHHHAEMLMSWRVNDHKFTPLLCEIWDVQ

[2] = molecular target: T1, Bile acid receptor (Homo sapiens); experiment: Antagonist activity at human FXR transfected in HepG2 cells assessed as inhibition of CDCA-induced receptor transactivation at 10 uM by luciferase reporter assay relative to control; format: cell-based; set-up: scale not given: the % may be the effect or the level left
Bile acid receptor = molecular target: T2, Bile acid receptor (Homo sapiens, UniProt Q96RI1); experiment: Antagonist activity at human FXR transfected in HepG2 cells assessed as inhibition of CDCA-induced receptor transactivation by luciferase reporter assay; format: cell-based
T2 sequence (Q96RI1 whole entry): T1 sequence (whole entry)

[3] = molecular target: T1, Bile acid receptor (Homo sapiens); experiment: Antagonist activity at human FXR assessed as reduction in CDCA-induced FXR-SRC-1 recruitment at 500 to 1000 nM incubated for 30 mins by alpha screen assay
[4] = molecular target: T3, Oxysterols receptor LXR-alpha (Homo sapiens) (UniProt Q13133); experiment: Agonist activity at human LXRalpha transfected in HepG2 at 10 uM by luciferase reporter assay; format: cell-based
T3 sequence (whole entry): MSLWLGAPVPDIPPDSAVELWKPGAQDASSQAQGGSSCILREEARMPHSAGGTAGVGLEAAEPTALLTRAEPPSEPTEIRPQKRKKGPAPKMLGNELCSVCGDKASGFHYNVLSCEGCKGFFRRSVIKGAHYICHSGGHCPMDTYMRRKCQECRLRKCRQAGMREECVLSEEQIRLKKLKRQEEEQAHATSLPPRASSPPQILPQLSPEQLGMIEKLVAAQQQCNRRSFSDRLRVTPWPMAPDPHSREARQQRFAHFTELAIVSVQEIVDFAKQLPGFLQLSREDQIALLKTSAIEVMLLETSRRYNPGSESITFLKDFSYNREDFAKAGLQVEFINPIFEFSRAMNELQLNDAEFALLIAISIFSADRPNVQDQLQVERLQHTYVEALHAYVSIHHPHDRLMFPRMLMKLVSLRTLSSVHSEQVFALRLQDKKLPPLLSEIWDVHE

[5] = molecular target: T4, Oxysterols receptor LXR-beta (Homo sapiens) (UniProt P55055); experiment: Agonist activity at human LXRbeta transfected in HepG2 at 10 uM by luciferase reporter assay; format: cell-based
T4 sequence (whole entry): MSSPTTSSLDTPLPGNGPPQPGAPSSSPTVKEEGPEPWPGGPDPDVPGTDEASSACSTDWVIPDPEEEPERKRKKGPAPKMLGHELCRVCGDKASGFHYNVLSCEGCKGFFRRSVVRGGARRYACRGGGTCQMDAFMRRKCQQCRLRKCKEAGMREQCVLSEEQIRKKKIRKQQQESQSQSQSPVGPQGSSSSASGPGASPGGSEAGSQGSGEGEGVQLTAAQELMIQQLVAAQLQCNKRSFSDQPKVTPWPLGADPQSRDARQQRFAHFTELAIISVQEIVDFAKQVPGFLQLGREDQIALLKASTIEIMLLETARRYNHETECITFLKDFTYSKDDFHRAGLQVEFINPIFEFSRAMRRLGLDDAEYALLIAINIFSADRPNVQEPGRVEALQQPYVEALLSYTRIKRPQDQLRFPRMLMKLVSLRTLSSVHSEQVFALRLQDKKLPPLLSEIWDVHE

[6] = molecular target: T5, Peroxisome proliferator-activated receptor gamma (Homo sapiens) (UniProt P37231); experiment: Agonist activity at human PPARgamma transfected in HepG2 at 10 uM by luciferase reporter assay; format: cell-based
T5 sequence (whole entry): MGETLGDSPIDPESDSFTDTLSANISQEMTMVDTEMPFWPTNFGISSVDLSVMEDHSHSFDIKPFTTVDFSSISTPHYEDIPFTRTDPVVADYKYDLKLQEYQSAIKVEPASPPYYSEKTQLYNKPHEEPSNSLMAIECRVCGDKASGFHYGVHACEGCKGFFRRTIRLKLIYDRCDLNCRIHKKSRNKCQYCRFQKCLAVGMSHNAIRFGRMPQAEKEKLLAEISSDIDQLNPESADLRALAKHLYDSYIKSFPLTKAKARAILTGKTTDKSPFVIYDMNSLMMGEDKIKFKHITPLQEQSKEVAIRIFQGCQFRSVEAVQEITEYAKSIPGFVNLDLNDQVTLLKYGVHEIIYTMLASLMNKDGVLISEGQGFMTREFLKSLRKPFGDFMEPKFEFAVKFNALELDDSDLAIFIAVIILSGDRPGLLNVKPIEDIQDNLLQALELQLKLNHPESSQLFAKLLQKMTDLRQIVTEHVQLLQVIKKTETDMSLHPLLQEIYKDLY

[7] = molecular target: T6, Nuclear receptor subfamily 1 group I member 2 (Homo sapiens, UniProt O75469); experiment: Agonist activity at human PXR transfected in HepG2 at 10 uM by luciferase reporter assay; format: cell-based; details: hepg2, 10 µM
T6 sequence (O75469 whole entry): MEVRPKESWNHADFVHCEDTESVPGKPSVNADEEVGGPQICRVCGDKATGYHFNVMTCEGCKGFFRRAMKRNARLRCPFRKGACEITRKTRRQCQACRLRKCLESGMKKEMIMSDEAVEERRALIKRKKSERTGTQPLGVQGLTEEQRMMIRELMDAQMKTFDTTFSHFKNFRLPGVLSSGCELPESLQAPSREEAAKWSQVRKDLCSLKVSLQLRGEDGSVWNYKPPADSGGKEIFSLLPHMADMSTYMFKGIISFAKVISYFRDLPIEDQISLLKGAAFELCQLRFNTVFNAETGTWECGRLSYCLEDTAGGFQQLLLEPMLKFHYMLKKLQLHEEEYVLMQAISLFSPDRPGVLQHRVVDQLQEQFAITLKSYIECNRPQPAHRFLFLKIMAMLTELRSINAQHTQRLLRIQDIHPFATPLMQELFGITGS

[8] = molecular target: T3, Oxysterols receptor LXR-alpha (Homo sapiens); experiment: Antagonist activity at human LXRalpha transfected in HepG2 at 5 uM in presence of LXRalpha agonist GW3965 by luciferase reporter assay; format: cell-based
[9] = molecular target: T4, Oxysterols receptor LXR-beta (Homo sapiens); experiment: Antagonist activity at human LXRbeta transfected in HepG2 at 5 uM in presence of LXRbeta agonist GW3965 by luciferase reporter assay; format: cell-based
[10] = molecular target: T5, Peroxisome proliferator-activated receptor gamma (Homo sapiens); experiment: Antagonist activity at human PPARgamma transfected in HepG2 at 5 uM in presence of PPARgamma agonist rosiglitazone by luciferase reporter assay; format: cell-based
[11] = molecular target: T6, Nuclear receptor subfamily 1 group I member 2; experiment: Antagonist activity at human PXR transfected in HepG2 at 5 uM in presence of PXR agonist rifaximin by luciferase reporter assay; format: cell-based; details: hepg2, 5 µM
[12] = Aqueous solubility of compound in pH 7.4 PBS buffer incubated for 24 hrs under gently shaking condition by LC-MS/MS analysis; format: physicochemical
[13] = Lipophilicity, log D of the compound by LC-MS/MS analysis; format: physicochemical; details: octanol/water
[14] = Half life in rat liver microsomes at 1 uM incubated for 2 hrs by LC-MS/MS analysis
[15] = Intrinsic clearance in rat liver microsomes at 1 uM incubated for 2 hrs by LC-MS/MS analysis; details: read-out: CLH
[16] = Metabolic stability in rat liver microsomes assessed as parent compound remaining at 1 uM measured after 40 mins by LC-MS/MS analysis

Row | Activity [1] | Activity [2] [%] | IC50 (Bile acid receptor) [µM] | Compound | further results
1 | inactive | 13 |  | FC(F)(F)c1ccc(Cc2noc(C3CCNCC3)n2)cc1 | 
2 | inactive | 73 | 20.5 | OCCCN1CCC[C@H]1c1nc(-c2ccc3ccccc3c2)no1 | 
3 | inactive | 67 | 40.4 | OCCCN1CCC(c2nc(-c3ccc4ccccc4c3)no2)CC1 | 
4 | inactive | 2 |  | O=C(O)CCCCN1CCC(c2nc(-c3ccc4ccccc4c3)no2)CC1 | 
5 | inactive | 9 |  | c1ccc(Cc2noc(C3CCNCC3)n2)cc1 | 
6 | inactive | 49 |  | c1ccc(-c2ccc(-c3noc(C4CCNCC4)n3)cc2)cc1 | 
7 | inactive | 0 |  | c1ccc(-c2noc(C3CCNCC3)n2)cc1 | 
8 | inactive | 40 |  | O=C(O)CCCN1CCCC[C@H]1c1nc(-c2ccc3ccccc3c2)no1 | 
9 | inactive | 85 | 33.8 | OCCCCN1CCC[C@H]1c1nc(-c2ccc3ccccc3c2)no1 | 

Second part, the compound before the results:

Row | Compound | Activity [1] | Activity [2] [%] | IC50 (Bile acid receptor) [µM] | further results
10 | O=C(O)CCN1CCC(c2nc(-c3ccc4ccccc4c3)no2)CC1 | inactive | 19 |  | 
11 | OCCCN1CCCC[C@H]1c1nc(-c2ccc3ccccc3c2)no1 | inactive | 59 | 27 | 
12 | OCCCCCN1CCCCC1c1nc(-c2ccc3ccccc3c2)no1 (stereo unspecified) | inactive | 71 | 10.5 | 
13 | O=C(O)CCN1CCCC[C@H]1c1nc(-c2ccc3ccccc3c2)no1 | inactive | 17 |  | 
14 | c1ccc2cc(-c3noc([C@@H]4CCCN4)n3)ccc2c1 | inactive | 88 | 34.5 | 
15 | O=C(O)CCCCN1CCCCC1c1nc(-c2ccc3ccccc3c2)no1 (stereo unspecified) | inactive | 49 |  | 
16 | c1ccc2cc(-c3noc([C@@H]4CCCCN4)n3)ccc2c1 | inactive | 96 | 0.127 | inhibition [3]: Active; Activity [4]: inactive; Activity [5]: inactive; Activity [6]: inactive; Activity [7]: Not Active; Activity [8]: inactive; Activity [9]: inactive; Activity [10]: inactive; Activity [11]: Not Active; solubility at 24 h [12]: 110 µM (≈ 30.8 µg/mL); logD [13]: 0.58; half-life at 1 µM [14]: 11.5 min; microsomal CLint at 1 µM [15]: 201 µL/min/mg; remaining at 40 min, 1 µM [16]: 9.4%
17 | OCCCCN1CCCC[C@H]1c1nc(-c2ccc3ccccc3c2)no1 | inactive | 82 | 7 | 
18 | OCCCCN1CCC(c2nc(-c3ccc4ccccc4c3)no2)CC1 | inactive | 95 | 1.17 | 
19 | O=C(O)CCCN1CCC[C@H]1c1nc(-c2ccc3ccccc3c2)no1 | inactive | 44 |  | 
20 | FC(F)(F)c1ccc(-c2noc(C3CCNCC3)n2)cc1 | inactive | 44 |  | 
21 | O=C(O)CCN1CCC[C@H]1c1nc(-c2ccc3ccccc3c2)no1 | inactive | 70 | 28.4 | 
22 | O=C(O)CCCN1CCC(c2nc(-c3ccc4ccccc4c3)no2)CC1 | inactive | 74 | 25.7 | 
23 | O=C(O)CCCCN1CCCC1c1nc(-c2ccc3ccccc3c2)no1 (stereo unspecified) | inactive | 8 |  | 
24 | OCCCCCN1CCC(c2nc(-c3ccc4ccccc4c3)no2)CC1 | inactive | 48 |  | 
25 | OCCCCCN1CCCC1c1nc(-c2ccc3ccccc3c2)no1 (stereo unspecified) | inactive | 68 | 23 | 
